Where two headings read alike, the source gives them in different places.
How the values were obtained:
[1] = system: soybean; assay: Test A preemergence; type: in vivo, Glycine max; conditions: Glycine max, pre-emergence, 240 h, read-out: Plant response rating, Soybean; for plant injury at 125 g/ha: 125 g ai/ha; for plant injury at 500 g/ha: 500 g ai/ha
In short: (§1)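 Loam/sand soil; pre-em directed soil spray at planting, post-em spray at 1–2 leaf (2–10 cm). Compound in non-phytotoxic solvent + surfactant. Greenhouse 10 d; visual injury vs untreated, 0 = no effect, 100 = complete control.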

[2] = system: corn; assay: Test A preemergence; type: in vivo, Zea mays; conditions: Zea mays, pre-emergence, 240 h; for Corn plant response rating (crop injury, 0 = no effect, 100 = complete kill) at 125 g/ha: 125 g ai/ha; for Corn plant response rating (crop injury, 0 = no effect, 100 = complete kill) at 500 g/ha: 500 g ai/ha
In short: as §1

[3] = system: ragweed; assay: Test A preemergence; type: in vivo, Ambrosia artemisiifolia; conditions: Ambrosia artemisiifolia, pre-emergence, 240 h, read-out: Plant response rating, Ragweed; for pest or weed control at 125 g/ha: 125 g ai/ha; for pest or weed control at 500 g/ha: 500 g ai/ha
In short: as §1

[4] = system: kochia; assay: Test A postemergence; type: in vivo, Bassia scoparia; conditions: Bassia scoparia, post-emergence, 240 h; for pest or weed control at 125 g/ha: 125 g ai/ha; for pest or weed control at 500 g/ha: 500 g ai/ha
In short: as §1

[5] = system: oat, wild; assay: Test A postemergence; type: in vivo, Avena fatua; conditions: Avena fatua, post-emergence, 240 h; for pest or weed control at 125 g/ha: 125 g ai/ha; for pest or weed control at 500 g/ha: 500 g ai/ha
In short: as §1

[6] = system: barnyardgrass; assay: Test B flooded paddy test; type: in vivo, Echinochloa crus-galli; conditions: Echinochloa crus-galli, 312 h, 250 g ai/ha, Flood, 13 days, 0 to 100 scale (0 no effect, 100 complete control); read-out: Plant response rating, Barnyardgrass
In short: (§2)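 Compound is introduced into paddy water covering soil by 3 cm, treating plants that have reached two leaves. Pots are kept flooded at that depth under greenhouse conditions. Assessment at 13 days gives a 0–100 visual control score.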

[7] = system: oat, wild; assay: Test A preemergence; type: in vivo, Avena fatua; conditions: Avena fatua, pre-emergence, 240 h, read-out: Plant response rating, Oat, Wild; for pest or weed control at 125 g/ha: 125 g ai/ha; for pest or weed control at 500 g/ha: 500 g ai/ha
In short: as §1

[8] = system: horseweed; assay: Test A postemergence; type: in vivo, Erigeron canadensis; conditions: Erigeron canadensis, post-emergence, 240 h; for pest or weed control at 125 g/ha: 125 g ai/ha; for pest or weed control at 500 g/ha: 500 g ai/ha
In short: as §1

[9] = system: pigweed, palmer; assay: Test A preemergence; type: in vivo, Amaranthus palmeri; conditions: Amaranthus palmeri, pre-emergence, 240 h, read-out: Plant response rating, Pigweed, Palmer; for pest or weed control at 125 g/ha: 125 g ai/ha; for pest or weed control at 500 g/ha: 500 g ai/ha
In short: as §1

[10] = system: rice; assay: Test B flooded paddy test; type: in vivo, Oryza sativa; conditions: Oryza sativa, 312 h; 250 g ai/ha, Flood, 13 days, 0 to 100 scale (0 no effect, 100 complete control); read-out: Plant response rating, Rice
In short: as §2

[11] = system: pigweed, palmer; assay: Test A postemergence; type: in vivo, Amaranthus palmeri; conditions: Amaranthus palmeri, post-emergence, 240 h; for pest or weed control at 125 g/ha: 125 g ai/ha; for pest or weed control at 500 g/ha: 500 g ai/ha
In short: as §1

[12] = system: foxtail, giant; assay: Test A preemergence; type: in vivo, Setaria faberi; conditions: Setaria faberi, pre-emergence, 240 h, read-out: Plant response rating, Foxtail, Giant
In short: as §1

[13] = system: wheat; assay: Test A postemergence; type: in vivo, Triticum aestivum; conditions: Triticum aestivum, post-emergence, 240 h; for plant injury at 125 g/ha: 125 g ai/ha; for plant injury at 500 g/ha: 500 g ai/ha
In short: as §1

[14] = system: blackgrass; assay: Test A postemergence; type: in vivo, Alopecurus myosuroides; conditions: Alopecurus myosuroides, post-emergence, 240 h; for pest or weed control at 125 g/ha: 125 g ai/ha; for pest or weed control at 500 g/ha: 500 g ai/ha
In short: as §1

[15] = visual injury after 10 days, 0 to 100 scale, 0 is no effect, 100 is complete control
[16] = 0 to 100 scale (0 no effect, 100 complete control), 10 days
[17] = postemergence, 10 days, visual injury, 0 to 100 scale (0 no effect, 100 complete control), read-out: Plant response rating, Kochia
[18] = postemergence, 10 days, visual injury, 0 to 100 scale (0 no effect, 100 complete control), read-out: Plant response rating, Oat, Wild
[19] = postemergence, 10 days, visual injury, 0 to 100 scale (0 no effect, 100 complete control), read-out: Plant response rating, Horseweed
[20] = postemergence, 10 days, visual injury, 0 to 100 scale (0 no effect, 100 complete control), read-out: Plant response rating, Pigweed, Palmer
[21] = postemergence, 10 days, visual injury, 0 to 100 scale (0 no effect, 100 complete control), read-out: Plant response rating, Wheat
[22] = postemergence, 10 days, visual injury, 0 to 100 scale (0 no effect, 100 complete control), read-out: Plant response rating, Blackgrass

## C#Cc1ncn(-c2cccc(C(=O)N3C[C@H](C)Oc4c(C)cccc43)c2)n1 [Compound 64, [(2S)-2,3-Dihydro-2,8-dimethyl-4H-1,4-benzoxazin-4-yl][3-(3-ethynyl-1H-1,2,4-triazol-1-yl)phenyl]methanone]
[1]; [15]
  plant injury at 125 g/ha: 20%
[1]; [16]
  plant injury at 500 g/ha: 30%
[2]; [15]
  Corn plant response rating (crop injury, 0 = no effect, 100 = complete kill) at 125 g/ha: 20%
[2]; [16]
  Corn plant response rating (crop injury, 0 = no effect, 100 = complete kill) at 500 g/ha: 50%
[3]; [15]
  pest or weed control at 125 g/ha: 0%
[3]; [16]
  pest or weed control at 500 g/ha: 0%
[4]; [17]
  pest or weed control at 125 g/ha: 60%
[4]; Postemergence, 0 to 100 scale, read-out: Plant response rating, Kochia
  pest or weed control at 500 g/ha: 80%
[5]; [18]
  pest or weed control at 125 g/ha: 50%
[5]; Postemergence, 0 to 100 scale, read-out: Plant response rating, Oat, Wild
  pest or weed control at 500 g/ha: 70%
[6]
  pest or weed control at 250 g/ha: 0%
[7]; [15]
  pest or weed control at 125 g/ha: 30%
[7]; [16]
  pest or weed control at 500 g/ha: 70%
[8]; [19]
  pest or weed control at 125 g/ha: 0%
[8]; Postemergence, 0 to 100 scale, read-out: Plant response rating, Horseweed
  pest or weed control at 500 g/ha: 40%
[9]; [15]
  pest or weed control at 125 g/ha: 40%
[9]; [16]
  pest or weed control at 500 g/ha: 100%
[10]
  plant injury at 250 g/ha: 0%
[11]; [20]
  pest or weed control at 125 g/ha: 30%
[11]; Postemergence, 0 to 100 scale, read-out: Plant response rating, Pigweed, Palmer
  pest or weed control at 500 g/ha: 50%
[12]; 125 g ai/ha, visual injury after 10 days, 0 to 100 scale, 0 is no effect, 100 is complete control
  pest or weed control at 125 g/ha: 90%
[12]; 500 g ai/ha, 0 to 100 scale (0 no effect, 100 complete control), 10 days
  pest or weed control at 500 g/ha: 100%
[13]; [21]
  plant injury at 125 g/ha: 10%
[13]; Postemergence, 0 to 100 scale, read-out: Plant response rating, Wheat
  plant injury at 500 g/ha: 40%
[14]; [22]
  pest or weed control at 125 g/ha: 40%
[14]; Postemergence, 0 to 100 scale, read-out: Plant response rating, Blackgrass
  pest or weed control at 500 g/ha: 70%

## CC(C)c1ncn(-c2cc3c(c(C(=O)N4C[C@H](C)Oc5c(Cl)cccc54)c2)OCC3)n1 [Compound 147]
[1]; 0 to 100 scale
  plant injury at 125 g/ha: 0%
[1]; [15]
  plant injury at 500 g/ha: 100%
[2]; 0 to 100 scale
  Corn plant response rating (crop injury, 0 = no effect, 100 = complete kill) at 125 g/ha: 0%
[2]; [15]
  Corn plant response rating (crop injury, 0 = no effect, 100 = complete kill) at 500 g/ha: 10%
[3]; 0 to 100 scale
  pest or weed control at 125 g/ha: 0%
[3]; [15]
  pest or weed control at 500 g/ha: 0%
[4]; postemergence, 10 days, 0 to 100 scale (0 no effect, 100 complete control), read-out: Kochia plant response rating
  pest or weed control at 125 g/ha: 60%
[4]; [17]
  pest or weed control at 500 g/ha: 90%
[5]; postemergence, 10 days, 0 to 100 scale (0 no effect, 100 complete control), read-out: Oat, Wild plant response rating
  pest or weed control at 125 g/ha: 30%
[5]; [18]
  pest or weed control at 500 g/ha: 80%
[6]
  pest or weed control at 250 g/ha: 0%
[7]; 0 to 100 scale
  pest or weed control at 125 g/ha: 20%
[7]; [15]
  pest or weed control at 500 g/ha: 90%
[8]; postemergence, 10 days, 0 to 100 scale (0 no effect, 100 complete control), read-out: Horseweed plant response rating
  pest or weed control at 125 g/ha: 0%
[8]; [19]
  pest or weed control at 500 g/ha: 0%
[9]; 0 to 100 scale
  pest or weed control at 125 g/ha: 90%
[9]; [15]
  pest or weed control at 500 g/ha: 100%
[10]
  plant injury at 250 g/ha: 0%
[11]; postemergence, 10 days, 0 to 100 scale (0 no effect, 100 complete control), read-out: Pigweed, Palmer plant response rating
  pest or weed control at 125 g/ha: 80%
[11]; [20]
  pest or weed control at 500 g/ha: 90%
[13]; postemergence, 10 days, 0 to 100 scale (0 no effect, 100 complete control), read-out: Wheat plant response rating
  plant injury at 125 g/ha: 10%
[13]; [21]
  plant injury at 500 g/ha: 60%
[14]; postemergence, 10 days, 0 to 100 scale (0 no effect, 100 complete control), read-out: Blackgrass plant response rating
  pest or weed control at 125 g/ha: 70%
[14]; [22]
  pest or weed control at 500 g/ha: 100%
